Test results from patent US9556165B2 (priority 2012, dated 2017).
≈ marks a conversion by molar mass, not a printed value. Like-named read-outs stand apart in the source and are kept apart here.

Tests used:
Type in all cases: cell-based
E. coli ATCC25922 = assay: MIC determination, broth microdilution (CLSI); conditions: for MIC: Escherichia coli, ATCC25922, strain 1
E. coli J62-TEM-3 = assay: MIC determination, broth microdilution (CLSI); conditions: broth microdilution; for MIC: Escherichia coli, J62TEM3, read-out: MIC strain 18 (E. coli J62-TEM-3), strain 18
S. pneumoniae 113 = assay: MIC determination, broth microdilution (CLSI); conditions: broth microdilution; for MIC: Streptococcus pneumoniae, 113, strain 13, read-out: MIC strain 13 (S. pneumoniae 113)
K. pneumoniae 60 = assay: MIC determination, broth microdilution (CLSI); conditions: for MIC: Klebsiella pneumoniae, 60, strain 2
H. influenzae ATCC 49247 = assay: MIC determination, broth microdilution (CLSI); conditions: broth microdilution; for MIC: Haemophilus influenzae, ATCC49247, strain 12, read-out: MIC strain 12 (H. influenzae ATCC 49247)
Bacteria = assay: MIC determination in combination with β-lactamase inhibitors (constant 4 μg/mL)
[1] = system: P. aeruginosa 2297-con (AmpC derepressed); assay: MIC determination, broth microdilution (CLSI); conditions: for MIC: Pseudomonas aeruginosa, read-out: strain 8 MIC, strain 8
A. baumannii ATCC15308 = assay: MIC determination, broth microdilution (CLSI); conditions: for MIC: Acinetobacter baumannii, ATCC15308, strain 9
S. maltophilia ICB7569 = assay: MIC determination, broth microdilution (CLSI); conditions: for MIC: Stenotrophomonas maltophilia, ICB7569, strain 10
[2] = system: P. aeruginosa 2297 (AmpC wt); assay: MIC determination, broth microdilution (CLSI); conditions: for MIC: Pseudomonas aeruginosa, strain 7
P. aeruginosa PAO1 = assay: MIC determination, broth microdilution (CLSI); conditions: for MIC: Pseudomonas aeruginosa, PAO1, strain 6
E. coli J62 = assay: MIC determination, broth microdilution (CLSI); conditions: broth microdilution; for MIC: Escherichia coli, J62, strain 17, read-out: MIC strain 17 (E. coli J62)
M. morganii 126/3048 = assay: MIC determination, broth microdilution (CLSI); conditions: for MIC: Morganella morganii, 126/3048, strain 5
S. aureus 133 = assay: MIC determination, broth microdilution (CLSI)
C. freundii K21/3034 = assay: MIC determination, broth microdilution (CLSI); conditions: for MIC: Citrobacter freundii, K21/3034, strain 4
C. perfringens DSM756 = assay: microbe, parasite or virus in culture; conditions: broth microdilution; for MIC: Clostridium perfringens, DSM756, read-out: MIC strain 16 (C. perfringens DSM756), strain 16
B. fragilis 6688 = assay: MIC determination, broth microdilution (CLSI); conditions: broth microdilution; for MIC: Bacteroides fragilis, 6688, strain 15, read-out: MIC strain 15 (B. fragilis 6688)
E. cloacae 34654 = assay: MIC determination, broth microdilution (CLSI); conditions: for MIC: Enterobacter cloacae, 34654, strain 3
[3] = Staphylococcus aureus, 133, strain 11, read-out: strain 11 MIC
[4] = Staphylococcus aureus, 133, strain 14, broth microdilution, read-out: MIC strain 14 (S. aureus 133)

| Compound | MIC strain 19 (E. coli J62-TEM-3 + 4 μg/mL clavulanic acid) (Bacteria) | MIC strain 20 (E. coli J62-TEM-3 + 4 μg/mL sulbactam) (Bacteria) | MIC strain 21 (E. coli J62-TEM-3 + 4 μg/mL tazobactam) (Bacteria) [µg/mL] | MIC [1] [µg/mL] | MIC (S. maltophilia ICB7569) [µg/mL] | MIC [2] [µg/mL] | MIC (E. coli J62-TEM-3) [µg/mL] | MIC (S. pneumoniae 113) [µg/mL] | MIC (H. influenzae ATCC 49247) [µg/mL] | MIC (M. morganii 126/3048) [µg/mL] | MIC (S. aureus 133; [3]) [µg/mL] | MIC (C. perfringens DSM756) [µg/mL] | MIC (B. fragilis 6688) [µg/mL] | MIC (E. coli ATCC25922) [µg/mL] | MIC (K. pneumoniae 60) [µg/mL] | MIC (A. baumannii ATCC15308) [µg/mL] | MIC (P. aeruginosa PAO1) [µg/mL] | MIC (E. coli J62) [µg/mL] | MIC (C. freundii K21/3034) [µg/mL] | MIC (E. cloacae 34654) [µg/mL] | further results |
| --- | --- | --- | --- | --- | --- | --- | --- | --- | --- | --- | --- | --- | --- | --- | --- | --- | --- | --- | --- | --- | --- |
| CC1(C)[C@H](NC(=O)/C(=N\OCC(Oc2ccc(C(=N)N)cc2)C(=O)O)c2csc(N)n2)C(=O)N1OS(=O)(=O)O (single isomer, unassigned) [Example 87B] | 0.5 µg/mL | 1 µg/mL | 2 | 32 (≈ 54.6 µM) | 16 (≈ 27.3 µM) | 32 (≈ 54.6 µM) | – | – | – | – | – | – | – | – | – | – | – | – | – | – | strain 1 MIC (E. coli ATCC25922): 0.5 µg/mL; MIC strain 18 (E. coli J62-TEM-3) (E. coli J62-TEM-3; strain 18): 32 µg/mL (≈ 54.6 µM); MIC strain 13 (S. pneumoniae 113) (S. pneumoniae 113; strain 13): 1 µg/mL (≈ 1.71 µM); strain 2 MIC (K. pneumoniae 60): 0.5 µg/mL; MIC strain 12 (H. influenzae ATCC 49247) (H. influenzae ATCC 49247; strain 12): 0.125 µg/mL (≈ 0.213 µM); strain 9 MIC (A. baumannii ATCC15308): 16 µg/mL; strain 6 MIC (P. aeruginosa PAO1): 16 µg/mL; MIC strain 17 (E. coli J62) (E. coli J62): 1 µg/mL (≈ 1.71 µM); strain 5 MIC (M. morganii 126/3048; strain 5): 0.25 µg/mL; strain 11 MIC (S. aureus 133; strain 11): ≦0.063 mg/L; strain 4 MIC (C. freundii K21/3034): 0.5 µg/mL; MIC strain 16 (C. perfringens DSM756) (C. perfringens DSM756; strain 16): 16 µg/mL (≈ 27.3 µM); MIC strain 15 (B. fragilis 6688) (B. fragilis 6688; strain 15): 16 µg/mL (≈ 27.3 µM); strain 3 MIC (E. cloacae 34654): 1 µg/mL |
| CC1(C)[C@H](NC(=O)/C(=N\O[C@@H](COc2ccc(C(=N)NC3CC3N)cc2)C(=O)O)c2csc(N)n2)C(=O)N1OS(=O)(=O)O (single isomer, unassigned) [Example 100A] | 0.125 µg/mL | 0.125 µg/mL | 0.25 | – | – | – | 32 (≈ 49.9 µM) | 0.5 (≈ 0.78 µM) | ≤ 0.063 | ≤ 0.063 | ≤ 0.063 | 2 (≈ 3.12 µM) | 8 (≈ 12.5 µM) | – | – | – | – | – | – | – | strain 1 MIC (E. coli ATCC25922): 0.125 µg/mL; strain 2 MIC (K. pneumoniae 60): 0.25 µg/mL; strain 8 MIC ([1]; strain 8): 4 µg/mL; strain 9 MIC (A. baumannii ATCC15308): 8 µg/mL; strain 10 MIC (S. maltophilia ICB7569; strain 10): 8 µg/mL; strain 7 MIC [2]: 4 µg/mL; strain 6 MIC (P. aeruginosa PAO1): 2 µg/mL; MIC strain 17 (E. coli J62) (E. coli J62): 0.25 µg/mL (≈ 0.39 µM); strain 4 MIC (C. freundii K21/3034): 0.125 µg/mL; strain 3 MIC (E. cloacae 34654): 0.125 µg/mL |
| CC1(C)[C@H](NC(=O)/C(=N\OC(COc2ccc(C(=N)NC3CCCNC3)cc2)C(=O)O)c2csc(N)n2)C(=O)N1OS(=O)(=O)O (stereo in doubt) [Example 89, (2R)-2-({[(1Z)-1-(2-Amino-1,3-thiazol-4-yl)-2-{[(3S)-2,2-dimethyl-4-oxo-1-(sulfooxy)-azetidin-3-yl]amino}-2-oxoethylidene]amino}oxy)-3-(4-{N-[(3R)-piperidin-3-yl]carbamimidoyl}phenoxy)propanoic acid] | ≦0.063 mg/L | ≦0.063 mg/L | 0.125 | 1 (≈ 1.5 µM) | 4 (≈ 5.98 µM) | 1 (≈ 1.5 µM) | 4 (≈ 5.98 µM) | 0.5 (≈ 0.748 µM) | ≤ 0.063 | ≤ 0.063 | – | 1 (≈ 1.5 µM) | 8 (≈ 12 µM) | 0.125 (≈ 0.187 µM) | 0.25 (≈ 0.374 µM) | 1 (≈ 1.5 µM) | 1 (≈ 1.5 µM) | 0.125 (≈ 0.187 µM) | 0.125 (≈ 0.187 µM) | 0.125 (≈ 0.187 µM) | MIC (S. aureus 133; [4]): 32 µg/mL (≈ 47.9 µM) |
| CN(C)CCNC(=N)c1ccc(OCCO/N=C(\C(=O)N[C@@H]2C(=O)N(OS(=O)(=O)O)C2(C)C)c2csc(N)n2)cc1 [Example 40, (2Z)-2-(2-Amino-1,3-thiazol-4-yl)-2-{[2-(4-{N-[2-(dimethylamino)ethyl]carbamimidoyl}phenoxy)ethoxy]imino}-N-[(3S)-2,2-dimethyl-4-oxo-1-(sulfooxy)azetidin-3-yl]ethanamide] | 0.125 µg/mL | 0.25 µg/mL | 0.25 | 4 (≈ 6.53 µM) | 16 (≈ 26.1 µM) | 8 (≈ 13.1 µM) | 8 (≈ 13.1 µM) | ≤ 0.063 | ≤ 0.063 | 0.5 (≈ 0.816 µM) | ≤ 0.063 | 2 (≈ 3.26 µM) | 4 (≈ 6.53 µM) | 0.125 (≈ 0.204 µM) | 0.25 (≈ 0.408 µM) | 2 (≈ 3.26 µM) | 4 (≈ 6.53 µM) | 0.25 (≈ 0.408 µM) | 0.125 (≈ 0.204 µM) | 0.5 (≈ 0.816 µM) | – |
| CC1(C)[C@H](NC(=O)/C(=N\OCCOc2ccc(C(=N)N)cc2)c2csc(N)n2)C(=O)N1OS(=O)(=O)O [Example 41, (2Z)-2-(2-Amino-1,3-thiazol-4-yl)-2-{[2-(4-carbamimidoylphenoxy)ethoxy]imino}-N-[(3S)-2,2-dimethyl-4-oxo-1-(sulfooxy)azetidin-3-yl]ethanamide] | 0.25 µg/mL | 0.25 µg/mL | 0.25 | 4 (≈ 7.39 µM) | 4 (≈ 7.39 µM) | 4 (≈ 7.39 µM) | 8 (≈ 14.8 µM) | ≤ 0.063 | ≤ 0.063 | 0.25 (≈ 0.462 µM) | ≤ 0.063 | 1 (≈ 1.85 µM) | 2 (≈ 3.69 µM) | 0.25 (≈ 0.462 µM) | 0.5 (≈ 0.923 µM) | 1 (≈ 1.85 µM) | 4 (≈ 7.39 µM) | 0.25 (≈ 0.462 µM) | 0.125 (≈ 0.231 µM) | 0.25 (≈ 0.462 µM) | MIC (S. aureus 133; [4]): 4 µg/mL (≈ 7.39 µM) |
| CN(C)C(=O)[C@@H]1C[C@H](NC(=N)c2ccc(OCCO/N=C(\C(=O)N[C@@H]3C(=O)N(OS(=O)(=O)O)C3(C)C)c3csc(N)n3)cc2)CN1 [Example 42, (4S)-4-{[{4-[2-({[(1Z)-1-(2-Amino-1,3-thiazol-4-yl)-2-{[(3S)-2,2-dimethyl-4-oxo-1-(sulfooxy)azetidin-3-yl]amino}-2-oxoethylidene]amino}oxy)ethoxy]phenyl}(imino)methyl]amino}-N,N-dimethyl-L-prolinamide] | 1 µg/mL | 1 µg/mL | 1 | 16 (≈ 23.5 µM) | 16 (≈ 23.5 µM) | 16 (≈ 23.5 µM) | 16 (≈ 23.5 µM) | 0.125 (≈ 0.183 µM) | 0.25 (≈ 0.367 µM) | 2 (≈ 2.93 µM) | ≤ 0.063 | 4 (≈ 5.87 µM) | 8 (≈ 11.7 µM) | 1 (≈ 1.47 µM) | 1 (≈ 1.47 µM) | 8 (≈ 11.7 µM) | 16 (≈ 23.5 µM) | 1 (≈ 1.47 µM) | 1 (≈ 1.47 µM) | 2 (≈ 2.93 µM) | MIC (S. aureus 133; [4]): 16 µg/mL (≈ 23.5 µM) |
| CC(=N)N1CC[C@H](NC(=N)c2ccc(OCCO/N=C(\C(=O)N[C@@H]3C(=O)N(OS(=O)(=O)O)C3(C)C)c3csc(N)n3)cc2)C1 [Example 43, (2Z)-2-(2-Amino-1,3-thiazol-4-yl)-N-[(3S)-2,2-dimethyl-4-oxo-1-(sulfooxy)azetidin-3-yl]-2-{[2-(4-{N-[(3S)-1-ethanimidoylpyrrolidin-3-yl]carbamimidoyl}phenoxy)ethoxy]-imino}ethanamide] | 0.25 µg/mL | 0.5 µg/mL | 0.5 | 8 (≈ 12.3 µM) | 32 (≈ 49.1 µM) | 8 (≈ 12.3 µM) | 8 (≈ 12.3 µM) | ≤ 0.063 | 0.125 (≈ 0.192 µM) | 1 (≈ 1.53 µM) | – | 2 (≈ 3.07 µM) | 8 (≈ 12.3 µM) | 0.5 (≈ 0.767 µM) | 0.5 (≈ 0.767 µM) | 0.5 (≈ 0.767 µM) | 8 (≈ 12.3 µM) | 0.5 (≈ 0.767 µM) | 0.25 (≈ 0.384 µM) | 1 (≈ 1.53 µM) | MIC (S. aureus 133; [4]): 4 µg/mL (≈ 6.14 µM) |
| CC1(C)[C@H](NC(=O)/C(=N\OCc2ccc(C(=N)N)cc2)c2csc(N)n2)C(=O)N1OS(=O)(=O)O [Example 57, (2Z)-2-(2-Amino-1,3-thiazol-4-yl)-2-{[(4-carbamimidoylbenzyl)oxy]imino}-N-[(3S)-2,2-dimethyl-4-oxo-1-(sulfooxy)azetidin-3-yl]ethanamide] | 1 µg/mL | 1 µg/mL | 2 | 16 (≈ 31.3 µM) | 32 (≈ 62.6 µM) | 32 (≈ 62.6 µM) | 32 (≈ 62.6 µM) | ≤ 0.063 | 0.125 (≈ 0.244 µM) | 1 (≈ 1.95 µM) | ≤ 0.063 | 2 (≈ 3.91 µM) | 1 (≈ 1.95 µM) | 1 (≈ 1.95 µM) | 2 (≈ 3.91 µM) | 2 (≈ 3.91 µM) | 32 (≈ 62.6 µM) | 2 (≈ 3.91 µM) | 1 (≈ 1.95 µM) | 2 (≈ 3.91 µM) | MIC (S. aureus 133; [4]): 4 µg/mL (≈ 7.82 µM) |
